Test results taken from US20180256489A1, “NATURAL FORMULATIONS” (priority 2010, published 2018).

How the values were obtained:
[1] = system: erythrocytes of sheep blood; test: Haemolysis test (model for eye irritation); assay type: cell-based; conditions: 50% haemolysis, 30 minutes in ice, 540 nm
Description: Haemolysis test (which serves as a model for eye irritation) was conducted in order to determine the safety of the products of the invention in comparison to the commercial surfactant SLES (sodium lauryl ether sulfate).
Preparation of the erythrocyte suspension: erythrocytes of sheep blood were separated by centrifugation at 1250g, for 15 minutes at room temperature, washed three times with phosphate-buffered saline solution (PBS, pH 7.4), and centrifuged twice under the same condition. The blood volume was completed with PBS. This suspension was maintained at 4° C. for up to three days.
The assay procedure: 20 μl of each sample were diluted up to 2 ml of the suspension, and were incubated with for 30 minutes in ice. The incubation was terminated by a rapid, high-speed (1800 g) centrifugation for 30 minutes. The extent of haemolysis was determined in spectrophotometrically at 540 nm against a blank (PBS). The extent of haemolysis, expressed as a percentage, was calculated as the absorbance of an erythrocyte suspension incubated with each product, relative to that of a completely haemolysed control (100%, at distilled water) at 540 nm. The Hm50 (50% haemolysis) was determined from concentration—response curves.

[2] = Foaming by Moulinex LM240 blender; assay type: physicochemical; conditions: Table 5; 1 wt % calculated saponins in distilled water
Description: (§1) Foaming properties of a solution of 1 wt % of the extract of the invention in water were measured by shaking 10 ml of the solution five times in a 100 ml covered glass cylinder. The volume of the generated foam was measured. Another method for measuring the foaming was performed by Moulinex LM240 blender at a maximum speed of 10 seconds for 80 ml solution. The generated foam was transferred to glass cylinder and measured. The same procedure was repeated with extracts obtained by various ethanol/water mixtures. Foaming—solution of 1 wt % of the extract in water was shaken five times in a glass cylinder as described above. The volume of the generated foam was measured. Another method for measuring the foaming was performed by Moulinex LM240 blender at a maximum speed of 10 seconds for 80 ml solution and measured in a glass cylinder, and the foaming results are detailed in Table 4 below.

[3] = Foaming by shaking in a covered glass cylinder; assay type: physicochemical; conditions: Table 5; 1 wt % calculated saponins in distilled water
Description: as §1

sodium lauryl ether sulfate [SLES]
HM50 [1]: 0.001 gram/100 ml

decyl glycoside [1 wt % Decyl glycoside]
Foam volume by blender [2]: 420 (±15) ml | Foam volume by shaking [3]: 57 (±5) ml
